Results reported in ChEMBL document CHEMBL1151449, “In vitro activity of DC-159a, a new broad-spectrum fluoroquinolone, compared with that of other agents against drug-susceptible and -resistant pneumococci” (2008).
In brackets after ≈: the same amount, converted by molar mass.

Columns and labels:
Type in all cases: functional
Streptococcus pneumoniae [1] = test: Antibacterial activity against Streptococcus pneumoniae HMC 1076 harboring S81F mutation in quinolone-resistant determining regions of GyrA gene, D83N mutation in QRDR of ParC gene and I460V mutation in QRDR of ParE gene by agar dilution method
Streptococcus pneumoniae [2] = test: Antibacterial activity against Streptococcus pneumoniae HMC 1070 harboring S81F mutation in quinolone-resistant determining regions of GyrA gene, D83N mutation in QRDR of ParC gene and I460V mutation in QRDR of ParE gene by agar dilution method
Streptococcus pneumoniae [3] = test: Antibacterial activity against Streptococcus pneumoniae HMC 1062 harboring S81F mutation in quinolone-resistant determining regions of GyrA gene, S79F mutation in QRDR of ParC gene and I460V mutation in QRDR of ParE gene by agar dilution method
Streptococcus pneumoniae [4] = test: Antibacterial activity against Streptococcus pneumoniae HMC 1156 harboring S81F and S79F mutation in quinolone-resistant determining regions of GyrA and ParC genes respectively showing efflux to ciprofloxacin, gemifloxacin by agar dilution method
Streptococcus pneumoniae [5] = test: Antibacterial activity against Streptococcus pneumoniae HMC 1059 harboring S81F mutation in quinolone-resistant determining regions of GyrA gene, S79F, K137N mutation in QRDR of ParC gene and I460N mutation in QRDR of ParE gene by agar dilution method
Streptococcus pneumoniae [6] = test: Antibacterial activity against Streptococcus pneumoniae HMC 2527 harboring S81Y mutation in quinolone-resistant determining regions of GyrA gene, S79F, K137N mutation in QRDR of ParC gene and I460V mutation in QRDR of ParE gene by agar dilution method
Streptococcus pneumoniae [7] = test: Antibacterial activity against Streptococcus pneumoniae HMC 1139 harboring S81F mutation in quinolone-resistant determining regions of GyrA gene, S79F, K137N mutation in QRDR of ParC gene and I460V mutation in QRDR of ParE gene by agar dilution method
Streptococcus pneumoniae [8] = test: Antibacterial activity against Streptococcus pneumoniae HMC 1055 harboring S81F mutation in quinolone-resistant determining regions of GyrA gene, S79F, K137N mutation in QRDR of ParC gene and I460V mutation in QRDR of ParE gene by agar dilution method
Streptococcus pneumoniae [9] = test: Antibacterial activity against Streptococcus pneumoniae HMC 1071 harboring S81F mutation in quinolone-resistant determining regions of GyrA gene and S79F, K137N mutation in QRDR of ParC gene by agar dilution method
Streptococcus pneumoniae [10] = test: Antibacterial activity against Streptococcus pneumoniae HMC 1151 harboring D83N, K137N mutation in quinolone-resistant determining regions of ParC gene and I460V mutation in QRDR of ParE gene showing efflux to ciprofloxacin, gemifloxacin by agar dilution method
Streptococcus pneumoniae [11] = test: Antibacterial activity against Streptococcus pneumoniae HMC 4026 harboring S81Y mutation in quinolone-resistant determining regions of GyrA gene, S79F, K137N mutation in QRDR of ParC gene and I460V mutation in QRDR of ParE gene by agar dilution method
Streptococcus pneumoniae [12] = test: Antibacterial activity against Streptococcus pneumoniae HMC 1073 harboring S81F mutation in quinolone-resistant determining regions of GyrA gene, and I460V mutation in QRDR of ParE gene by agar dilution method
Streptococcus pneumoniae [13] = test: Antibacterial activity against Streptococcus pneumoniae HMC 1150 harboring S81C mutation in quinolone-resistant determining regions of GyrA gene, S79F mutation in QRDR of ParC gene and I460V mutation in QRDR of ParE gene by agar dilution method
Streptococcus pneumoniae [14] = test: Antibacterial activity against Streptococcus pneumoniae HMC 1078 harboring S81F mutation in quinolone-resistant determining regions of GyrA gene, S79F mutation in QRDR of ParC gene and I460V mutation in QRDR of ParE gene by agar dilution method
Streptococcus pneumoniae [15] = test: Antibacterial activity against Streptococcus pneumoniae HMC 1541 harboring S81Y mutation in quinolone-resistant determining regions of GyrA gene, S79F, K137N mutation in QRDR of ParC gene and I460V mutation in QRDR of ParE gene by agar dilution method
Streptococcus pneumoniae [16] = test: Antibacterial activity against Streptococcus pneumoniae HMC 1077 harboring S81Y and S79F mutation in quinolone-resistant determining regions of GyrA and ParC genes respectively by agar dilution method
Streptococcus pneumoniae [17] = test: Antibacterial activity against Streptococcus pneumoniae HMC 1066 harboring S81F mutation in quinolone-resistant determining regions of GyrA gene, S79F mutation in QRDR of ParC gene and I460V mutation in QRDR of ParE gene by agar dilution method
Streptococcus pneumoniae [18] = test: Antibacterial activity against Streptococcus pneumoniae HMC 1072 harboring S81F mutation in quinolone-resistant determining regions of GyrA gene, S79Y mutation in QRDR of ParC gene and I460V mutation in QRDR of ParE gene by agar dilution method
Streptococcus pneumoniae [19] = test: Antibacterial activity against Streptococcus pneumoniae HMC 1058 harboring S79F, K137N mutation in quinolone-resistant determining regions of ParC gene and 460V mutation in QRDR of ParE gene by agar dilution method
Streptococcus pneumoniae [20] = test: Antibacterial activity against quinolone-resistant Streptococcus pneumoniae […] by agar dilution method
Streptococcus pneumoniae [21] = test: Antibacterial activity against Streptococcus pneumoniae HMC 1074 harboring S81F mutation in quinolone-resistant determining regions of GyrA gene, S79F mutation in QRDR of ParC gene and I460V mutation in QRDR of ParE gene by agar dilution method
Streptococcus pneumoniae [22] = test: Antibacterial activity against Streptococcus pneumoniae HMC 1147 harboring S81F mutation in quinolone-resistant determining regions of GyrA gene, S79F mutation in QRDR of ParC gene and I460V mutation in QRDR of ParE gene showing efflux to gemifloxacin by agar dilution method
Streptococcus pneumoniae [23] = test: Antibacterial activity against Streptococcus pneumoniae HMC 1068 harboring E85K mutation in quinolone-resistant determining regions of GyrA gene, S79Y, K137N mutation in QRDR of ParC gene and I460V mutation in QRDR of ParE gene showing efflux to ciprofloxacin, levofloxacin by agar dilution method
Streptococcus pneumoniae [24] = test: Antibacterial activity against Streptococcus pneumoniae HMC 2536 harboring S81Y mutation in quinolone-resistant determining regions of GyrA gene, S79F, K137N mutation in QRDR of ParC gene and I460V mutation in QRDR of ParE gene by agar dilution method
Streptococcus pneumoniae [25] = test: Antibacterial activity against Streptococcus pneumoniae HMC 1146 harboring S81F mutation in quinolone-resistant determining regions of GyrA gene, and D435N mutation in QRDR of ParE gene by agar dilution method
Streptococcus pneumoniae [26] = test: Antibacterial activity against Streptococcus pneumoniae HMC 1060 harboring S81F mutation in quinolone-resistant determining regions of GyrA gene, S79F, K137N mutation in QRDR of ParC gene and I460V mutation in QRDR of ParE gene by agar dilution method
Streptococcus pneumoniae [27] = test: Antibacterial activity against Streptococcus pneumoniae HMC 2538 harboring S81Y mutation in quinolone-resistant determining regions of GyrA gene, S79F, K137N mutation in QRDR of ParC gene and I460V mutation in QRDR of ParE gene showing efflux to ciprofloxacin, levofloxacin, gatifloxacin by agar dilution method
Streptococcus pneumoniae [28] = test: Antibacterial activity against Streptococcus pneumoniae HMC 1149 harboring S81F and S79Y mutation in quinolone-resistant determining regions of GyrA and ParC genes respectively showing efflux to ciprofloxacin, gemifloxacin by agar dilution method
Streptococcus pneumoniae [29] = test: Antibacterial activity against Streptococcus pneumoniae HMC 5041 harboring S81F and S79F mutation in quinolone-resistant determining regions of GyrA and ParC genes respectively by agar dilution method
Streptococcus pneumoniae [30] = test: Antibacterial activity against azithromycin-resistant Streptococcus pneumoniae […] by agar dilution method
Streptococcus pneumoniae [31] = test: Antibacterial activity against quinolone-susceptible Streptococcus pneumoniae ATCC 49619 by agar dilution method
Streptococcus pneumoniae [32] = test: Antibacterial activity against penicillin-intermediate Streptococcus pneumoniae […] by agar dilution method
Streptococcus pneumoniae [33] = test: Antibacterial activity against azithromycin-susceptible Streptococcus pneumoniae ATCC 49619 by agar dilution method
Streptococcus pneumoniae [34] = test: Antibacterial activity against penicillin-, macrolide-susceptible and quinolone-resistant Streptococcus pneumoniae HMC 1074 harboring S81F, E85K mutation in quinolone-resistant determining regions of GyrA gene, S79F mutation in QRDR of ParC gene and I460V mutation in QRDR of ParE gene after 27 passages with gemifloxacin measured after 10 daily antibiotic-free subculturing by multi-step resistance selection technique
Streptococcus pneumoniae [35] = test: Antibacterial activity against penicillin-susceptible Streptococcus pneumoniae ATCC 49619 by agar dilution method
Streptococcus pneumoniae [36] = test: Antibacterial activity against penicillin-resistant Streptococcus pneumoniae […] by agar dilution method

Question: For `O=C(O)c1cn(C2CC2)c2cc(N3CCNCC3)c(F)cc2c1=O` [CIPROFLOXACIN], which MIC (Streptococcus pneumoniae [1]) is on record?
Answer: 16 µg/mL (≈ 48.3 µM)

Question: And the MIC (Streptococcus pneumoniae [2])?
Answer: > 32 µg/mL

Question: What about the MIC (Streptococcus pneumoniae [3]) of the same molecule?
Answer: > 32 µg/mL

Question: What about the MIC (Streptococcus pneumoniae [4]) of the same molecule?
Answer: > 32 µg/mL

Question: And the MIC (Streptococcus pneumoniae [5])?
Answer: 32 µg/mL (≈ 96.6 µM)

Question: What about the MIC (Streptococcus pneumoniae [6]) of the same molecule?
Answer: 16 µg/mL (≈ 48.3 µM)

Question: And the MIC (Streptococcus pneumoniae [7])?
Answer: 32 µg/mL (≈ 96.6 µM)

Question: What about the MIC (Streptococcus pneumoniae [8]) of the same molecule?
Answer: 32 µg/mL (≈ 96.6 µM)

Question: And the MIC (Streptococcus pneumoniae [9])?
Answer: 32 µg/mL (≈ 96.6 µM)

Question: What about the MIC (Streptococcus pneumoniae [10]) of the same molecule?
Answer: 16 µg/mL (≈ 48.3 µM)

Question: What about the MIC (Streptococcus pneumoniae [11]) of the same molecule?
Answer: > 32 µg/mL

Question: What about the MIC (Streptococcus pneumoniae [12]) of the same molecule?
Answer: 8 µg/mL (≈ 24.1 µM)

Question: And the MIC (Streptococcus pneumoniae [13])?
Answer: 16 µg/mL (≈ 48.3 µM)

Question: And the MIC (Streptococcus pneumoniae [14])?
Answer: > 32 µg/mL

Question: What about the MIC (Streptococcus pneumoniae [15]) of the same molecule?
Answer: 16 µg/mL (≈ 48.3 µM)

Question: What about the MIC (Streptococcus pneumoniae [16]) of the same molecule?
Answer: > 32 µg/mL

Question: What about the MIC (Streptococcus pneumoniae [17]) of the same molecule?
Answer: 16 µg/mL (≈ 48.3 µM)

Question: And the MIC (Streptococcus pneumoniae [18])?
Answer: > 32 µg/mL

Question: And the MIC (Streptococcus pneumoniae [19])?
Answer: 16 µg/mL (≈ 48.3 µM)

Question: And the MIC50 (Streptococcus pneumoniae [20])?
Answer: 16 µg/mL (≈ 48.3 µM)

Question: What about the MIC90 (Streptococcus pneumoniae [20]) of the same molecule?
Answer: > 32 µg/mL

Question: What about the MIC (Streptococcus pneumoniae [21]) of the same molecule?
Answer: 16 µg/mL (≈ 48.3 µM)

Question: And the MIC (Streptococcus pneumoniae [22])?
Answer: 32 µg/mL (≈ 96.6 µM)

Question: And the MIC (Streptococcus pneumoniae [23])?
Answer: 32 µg/mL (≈ 96.6 µM)

Question: And the MIC (Streptococcus pneumoniae [24])?
Answer: 16 µg/mL (≈ 48.3 µM)

Question: What about the MIC (Streptococcus pneumoniae [25]) of the same molecule?
Answer: 32 µg/mL (≈ 96.6 µM)

Question: And the MIC (Streptococcus pneumoniae [26])?
Answer: 16 µg/mL (≈ 48.3 µM)

Question: What about the MIC (Streptococcus pneumoniae [27]) of the same molecule?
Answer: 16 µg/mL (≈ 48.3 µM)

Question: And the MIC (Streptococcus pneumoniae [28])?
Answer: 16 µg/mL (≈ 48.3 µM)

Question: And the MIC (Streptococcus pneumoniae [29])?
Answer: 16 µg/mL (≈ 48.3 µM)

Question: What does the source list for `C[C@H]1COc2c(N3CCN(C)CC3)c(F)cc3c(=O)c(C(=O)O)cn1c23.C[C@H]1COc2c(N3CCN(C)CC3)c(F)cc3c(=O)c(C(=O)O)cn1c23.O` [LEVOFLOXACIN]?
Answer: MIC50 (Streptococcus pneumoniae [30]): 1 µg/mL; MIC90 (Streptococcus pneumoniae [30]): 2 µg/mL; MIC50 (Streptococcus pneumoniae [31]): 1 µg/mL; MIC90 (Streptococcus pneumoniae [31]): 1 µg/mL; MIC50 (Streptococcus pneumoniae [32]): 1 µg/mL; MIC90 (Streptococcus pneumoniae [32]): 1 µg/mL; MIC50 (Streptococcus pneumoniae [33]): 1 µg/mL; MIC90 (Streptococcus pneumoniae [33]): 8 µg/mL; MIC50 (Streptococcus pneumoniae [20]): 16 µg/mL; MIC90 (Streptococcus pneumoniae [20]): 16 µg/mL; MIC (Streptococcus pneumoniae [34]): 64 µg/mL; MIC50 (Streptococcus pneumoniae [35]): 1 µg/mL; MIC90 (Streptococcus pneumoniae [35]): 4 µg/mL; MIC50 (Streptococcus pneumoniae [36]): 1 µg/mL; MIC90 (Streptococcus pneumoniae [36]): 8 µg/mL
